This test addresses human PD-L1 (Homo sapiens (Human), UniProt Q9NZQ7). As to the kind of experiment: Enzyme-Linked Immunosorbent Assay (ELISA), PD-1/PD-L1 binding. Put shortly: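 Plates coated with […] human PD-L1 overnight at 4° C, blocked, then 1:5 serial compound dilutions added with human PD-1 […] 0.31 μg/mL for 1 h at 37° C. Bound PD-1 detected with streptavidin-HRP and TMB (20 min, 37° C); absorbance read at 450 nm after H2SO4 stop.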
Background: ELISA stands for enzyme-linked immunosorbent assay.

The mark [1] stands for this setting: PD-1/PD-L1 ELISA, human PD-L1 coated plates, Table 1.
The mark [2] stands for this setting: human PD-1/PD-L1 ELISA, plates coated with human PD-L1.
The mark [3] stands for this setting: plate-coated human PD-L1, biotinylated Human PD-1, absorbance at 450 nm.

The structures appear in SMILES notation.

Chain of human PD-L1 (Q9NZQ7 19-239): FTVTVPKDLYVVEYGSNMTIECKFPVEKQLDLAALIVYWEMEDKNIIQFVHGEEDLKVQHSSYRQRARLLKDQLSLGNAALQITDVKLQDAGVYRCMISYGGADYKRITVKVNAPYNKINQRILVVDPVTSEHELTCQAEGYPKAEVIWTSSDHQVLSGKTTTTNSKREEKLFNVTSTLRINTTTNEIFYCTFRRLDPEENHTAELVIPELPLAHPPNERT

What is called IC50 is the concentration that inhibits the measured activity by half. Higher therefore signals a need for much substance. The compound `COc1cc(-c2cccc(-c3cccc(NC(=O)c4c[nH]c(=O)n(C)c4=O)c3C)c2C)cc(F)c1CNC(C)C` [Example 1.236] yielded an IC50 under setting [1] of under 10 nM.
With `COc1cc(-c2cccc(-c3cccc(NC(=O)c4c[nH]c(=O)n(C)c4=O)c3C)c2C)cc(F)c1CNC1CCOCC1` [Example 1.053], under setting [2], the IC50 was under 10 nM.
For the compound `COc1cc(-c2cccc(-c3cccc(NC(=O)c4cncn(C)c4=O)c3C)c2C)cc(F)c1CNC1CCCC1` [Example 1.198], the IC50 under setting [1] is under 10 nM.
Still for that read-out and setting: next, `COC(=O)Cc1ccc(C(=O)Nc2cccc(-c3cccc(-c4cc(F)c(CN)c(OC)c4)c3C)c2C)nc1` [Example 1.331]: under 10 nM.
Compound `COc1cc(-c2cccc(-c3cccc(NC(=O)c4nn(C)c(=O)n(C)c4=O)c3C)c2C)cc(F)c1CN(C)C[C@@H]1CCC(=O)N1` [Example 1.077] registered a concentration for half-maximal inhibition (IC50) under setting [2] of under 10 nM.
`COc1cc(-c2cccc(-c3cccc(NC(=O)c4cn(C)c(=O)n(C)c4=O)c3C)c2F)cc(F)c1CN[C@@H]1CCOC[C@H]1O` [Example 2.099]: the IC50 under setting [3] is under 10 nM.
`COc1cc(-c2cccc(-c3cccc(NC(=O)c4cn(C)c(=O)n(C)c4=O)c3C)c2C)cc(F)c1CN[C@H]1COC[C@@H]1O` [Example 1.072] yielded an IC50 under setting [2] of under 10 nM.
Same read-out and setting: next, `COc1cc(-c2cccc(-c3cccc(Nc4nccc5nccnc45)c3C)c2C)cc(F)c1CN[C@H]1CCC[C@@H]1O` [Example 1.144]: under 10 nM.
The same measure, in the same setting: next, `COc1cc(-c2cccc(-c3cccc(NC(=O)c4cn(C)c(=O)n(C)c4=O)c3C)c2C)cc(F)c1CNCc1c[nH]c(=O)[nH]c1=O` [Example 1.149]: under 10 nM.
In turn, `CCOc1cc(-c2cccc(-c3cccc(NC(=O)c4cn(C)c(=O)n(C)c4=O)c3Cl)c2Cl)cc(F)c1CN[C@H]1CCC(=O)NC1` [Example 2.036] had a concentration for half-maximal inhibition (IC50) under setting [3] of under 10 nM.
Take `COc1cc(-c2cccc(-c3cccc(NC(=O)c4cn(C)c(=O)n(C)c4=O)c3Cl)c2Cl)cc(F)c1CNC[C@@H]1CCC(=O)N1` [Example 1.031]: the concentration for half-maximal inhibition (IC50) under setting [2] was under 10 nM.
Take `COc1cc(-c2cccc(-c3cccc(NC(=O)c4c[nH]c(=O)n(C)c4=O)c3C)c2C)cc(F)c1CN(C)C` [Example 1.241]: the IC50 under setting [1] was under 10 nM.
`COc1cc(-c2cccc(-c3cccc(NC(=O)c4cn(C)c(=O)n(C)c4=O)c3Cl)c2C)cc(F)c1CN[C@H]1CCOC[C@@H]1O` [Example 2.077] yielded an IC50 under setting [3] of under 10 nM.
Still for that read-out and setting: next, `COc1cc(-c2cccc(-c3cccc(NC(=O)c4cn(C)c(=O)n(C)c4=O)c3C)c2Cl)cc(F)c1CN(C)[C@@H]1CCOC[C@@H]1O` [Example 2.062]: under 10 nM.
Take `COc1cc(-c2cccc(-c3cccc(NC(=O)c4cn(C)c(=O)n(C)c4=O)c3Cl)c2Cl)cc(F)c1CN1CC2(CCNC2=O)C1` [Example 2.002]: under setting [3], the IC50 is under 10 nM.
Regarding `CC[C@@H](O)NCc1c(F)cc(-c2cccc(-c3cccc(Nc4nccc5c4C(=O)N(C)CC5)c3C)c2C)cc1OC` [Example 1.190], under setting [2], the IC50 was under 10 nM.
Compound `COc1cc(-c2cccc(-c3cccc(Nc4ncnc5cccnc45)c3C)c2C)cc(F)c1CN1CC(C(=O)O)C1` [Example 1.243] gave an IC50 under setting [1] of 1000 to 10000 nM.
Under setting [1], `COc1cc(-c2cccc(-c3cccc(NC(=O)c4cnc(CC(=O)O)cn4)c3C)c2C)cc(F)c1CN` [Example 1.309] displayed an IC50 of under 10 nM.
On the same count and under the same terms, next, `COc1cc(-c2cccc(-c3cccc(NC(=O)C4CCCO4)c3C)c2C)cc(F)c1CN[C@@](C)(CO)C(=O)O` (some centres unmarked) [Example 1.336]: 1000 to 10000 nM.
Take `COc1cc(-c2cccc(-c3cccc(NC(=O)c4cn(C)c(=O)n(C)c4=O)c3C)c2C)cc(F)c1CNCCC(N)=O` [Example 1.114]: the IC50 under setting [2] is under 10 nM.
Under setting [3], `COc1cc(-c2cccc(-c3cccc(NC(=O)c4cn(C)c(=O)n(C)c4=O)c3C)c2Cl)cc(F)c1CN1CCC(O)CC1` [Example 2.020] showed a concentration for half-maximal inhibition (IC50) of under 10 nM.
Compound `COc1cc(-c2cccc(-c3cccc(Nc4nccc5c4C(=O)N(C)CC5)c3C)c2C)cc(F)c1CNC[C@@H](C)O` [Example 1.185] displayed an IC50 under setting [2] of 10 to 1000 nM.
In turn, `COc1cc(-c2cccc(-c3cccc(NC(=O)c4ccc(CC(=O)O)cn4)c3C)c2C)cc(F)c1CN` [Example 1.335] gave an IC50 under setting [1] of 10 to 1000 nM.
`COc1cc(-c2cccc(-c3cccc(NC(=O)c4cn(C)c(=O)n(C)c4=O)c3C)c2C)cc(F)c1CNC1CC(=O)NC1=O` (centres unmarked) [Example 1.121]: the IC50 under setting [2] is 10 to 1000 nM.
Compound `COc1cc(-c2cccc(-c3cccc(NC(=O)c4ccccn4)c3C)c2C)cc(F)c1CN1CCC[C@@H](C(=O)O)C1` [Example 1.354] came in with an IC50 under setting [1] of 10 to 1000 nM.
`COc1cc(-c2cccc(-c3cccc(Nc4nccc5nccnc45)c3C)c2C)cc(F)c1CN[C@H]1CNC(=O)C1` [Example 1.153] had an IC50 under setting [2] of under 10 nM.
On the same count and under the same terms, the result for `COc1cc(-c2cccc(-c3cccc(NC(=O)c4ccc(CNCCO)cn4)c3C)c2C)cc(F)c1CNCCO` [Example 1.404] reads under 10 nM.
On the same count and under the same terms, the result for `COc1cc(-c2cccc(-c3cccc(Nc4nccc5nccnc45)c3Cl)c2C)cc(F)c1CN[C@@H]1CNC(=O)C1` [Example 1.023] reads 10 to 1000 nM.
For `COc1cc(-c2cccc(-c3cccc(Nc4nccc5nccnc45)c3C)c2C)cc(F)c1CN[C@H]1CCNC1=O` [Example 1.125], the IC50 under setting [2] is 10 to 1000 nM.
Compound `COc1cc(-c2cccc(-c3cccc(NC(=O)c4c[nH]c(=O)n(C)c4=O)c3C)c2C)cc(F)c1CN[C@@H]1CCC[C@@H]1O` [Example 1.218] came in with an IC50 under setting [1] of under 10 nM.
Under setting [2], `COc1cc(-c2cccc(-c3cccc(NC(=O)c4c[nH]c(=O)n(C)c4=O)c3C)c2C)cc(F)c1CNCCC1CNC(=O)C1` (centres unmarked) [Example 1.086] gave an IC50 of under 10 nM.
The same measure, in the same setting: next, `COc1cc(-c2cccc(-c3cccc(NC(=O)c4cn(C)c(=O)n(C)c4=O)c3C)c2C)cc(F)c1CN(C)C[C@@H]1CCC(=O)N1` [Example 1.175]: under 10 nM.
For `COc1cc(-c2cccc(-c3cccc(NC(=O)c4ccc(N)nc4)c3C)c2C)cc(F)c1CNCCO` [Example 1.390], under setting [1], the IC50 was 1000 to 10000 nM.
In the case of `COc1cc(-c2cccc(-c3cccc(NC(=O)c4cn(C)c(=O)n(C)c4=O)c3C)c2Cl)cc(F)c1CN[C@H]1CNC(=O)C1` [Example 2.084], under setting [3], the IC50 is under 10 nM.
Take `COc1cc(-c2cccc(-c3cccc(NC(=O)c4nn(C)c(=O)n(C)c4=O)c3C)c2C)cc(F)c1CN[C@H]1CNC(=O)C1` [Example 1.070]: the IC50 under setting [2] was under 10 nM.
Compound `COC(=O)c1ccc(C(=O)Nc2cccc(-c3cccc(-c4cc(F)c(CNCCO)c(OC)c4)c3C)c2C)nc1` [Example 1.334] displayed an IC50 under setting [1] of 10 to 1000 nM.
Same read-out and setting: next, `COc1cc(-c2cccc(-c3cccc(NC(=O)c4ccccn4)c3)c2C)cc(F)c1CN1CC(C(=O)O)C1` [Example 1.375]: 10 to 1000 nM; `COc1cc(-c2cccc(-c3cccc(NC(=O)c4cnc(C(=O)O)cn4)c3C)c2C)cc(F)c1CN` [Example 1.322]: under 10 nM; `COc1cc(-c2cccc(-c3cccc(NC(=O)c4c[nH]c(=O)n(C)c4=O)c3C)c2C)cc(F)c1CNC[C@@H]1CCC(=O)N1` [Example 1.201]: under 10 nM.
Consider `COc1cc(-c2cccc(-c3cccc(NC(=O)c4c[nH]c(=O)n(C)c4=O)c3Cl)c2Cl)cc(F)c1CNCC1(C(N)=O)CC1` [Example 2.026], for which, under setting [3], the IC50 is under 10 nM.
Turning to `COc1cc(-c2cccc(-c3cccc(NC(=O)c4cncn(C)c4=O)c3C)c2C)cc(F)c1CNC[C@@H]1CCC(=O)N1C` [Example 1.195], the IC50 under setting [2] was under 10 nM.
The compound `COc1cc(-c2cccc(-c3cccc(NC(=O)c4cn(C)c(=O)n(C)c4=O)c3C)c2Cl)cc(F)c1CN1CCCC[C@H]1C(=O)O` [Example 2.047] came in with an IC50 under setting [3] of under 10 nM.
Turning to `COc1cc(-c2cccc(-c3cccc(NC(=O)c4ccccn4)c3C)c2C)cc(F)c1CN1CC(O)C1` [Example 1.388], the IC50 under setting [1] is under 10 nM.
Turning to `COc1cc(-c2cccc(-c3cccc(NC(=O)c4nn(C)c(=O)n(C)c4=O)c3C)c2C)cc(F)c1CNCC(C)(C)C(N)=O` [Example 1.063], the IC50 under setting [2] is under 10 nM.
Regarding `COc1cc(-c2cccc(-c3cccc(NC(=O)c4c[nH]c(=O)n(C)c4=O)c3C)c2C)cc(F)c1CNC1COC1` [Example 1.216], under setting [1], the IC50 was 10 to 1000 nM.
The same measure, in the same setting: the result for `COc1cc(-c2cccc(-c3cccc(Nc4nccc5c4C(=O)N(C)CC5)c3C)c2C)cc(F)c1CN1CC(C(=O)O)C1` [Example 1.265] reads under 10 nM; that for `COc1cc(-c2cccc(-c3cccc(NC(=O)c4c[nH]c(=O)n(C)c4=O)c3C)c2C)cc(F)c1CNCC(=O)O` [Example 1.261], under 10 nM.
Compound `COc1cc(-c2cccc(-c3cccc(NC(=O)c4cn(C)c(=O)n(C)c4=O)c3Cl)c2Cl)cc(F)c1CN1CCC(C(=O)O)CC1` [Example 2.004] showed an IC50 under setting [3] of under 10 nM.
Under setting [2], `COc1cc(-c2cccc(-c3cccc(NC(=O)c4c[nH]c(=O)n(C)c4=O)c3C)c2C)cc(F)c1CNCC(C)(C)C(N)=O` [Example 1.085] returned an IC50 of under 10 nM.
Regarding `COc1cc(-c2cccc(-c3cccc(NC(=O)c4cn(C)c(=O)n(C)c4=O)c3C)c2Cl)cc(F)c1CN(C)[C@@H]1CCOC1` [Example 2.043], the IC50 under setting [3] was under 10 nM.
Compound `COc1cc(-c2cccc(-c3cccc(NC(=O)c4c[nH]c(=O)n(C)c4=O)c3C)c2C)cc(F)c1CNCc1ncc[nH]1` [Example 1.119] came in with an IC50 under setting [2] of 10 to 1000 nM.
On the same count and under the same terms, next, `COc1cc(-c2cccc(-c3cccc(NC(=O)c4cccn(C)c4=O)c3C)c2C)cc(F)c1CN[C@H]1CNC(=O)C1` [Example 1.142]: under 10 nM.
The compound `COc1cc(-c2cccc(-c3cccc(NC(=O)c4cn(C)c(=O)n(C)c4=O)c3C)c2Cl)ccc1CN[C@@H]1CCOC[C@@H]1O` [Example 2.054] registered an IC50 under setting [3] of under 10 nM.
`COc1cc(-c2cccc(-c3cccc(NC(=O)c4nn(C)c(=O)n(C)c4=O)c3C)c2C)cc(F)c1CNCCC(N)=O` [Example 1.090] came in with an IC50 under setting [2] of under 10 nM.
The same measure, in the same setting: the result for `COc1cc(-c2cccc(-c3cccc(NC(=O)c4nn(C)c(=O)n(C)c4=O)c3C)c2C)cc(F)c1CNC(C)C` [Example 1.065] reads under 10 nM.
In turn, `COc1cc(-c2cccc(-c3cccc(NC(=O)c4ccc(C)cn4)c3C)c2C)cc(F)c1CN1CC(C(=O)O)C1` [Example 1.371] registered an IC50 under setting [1] of under 10 nM.

The values are drawn from US11266643B2, “Triaryl compounds for treatment of PD-L1 diseases” (CHEMOCENTRYX, INC., priority 2019, dated 2022).
